Data as given in publication PMC7922564, “Molecular Insights into an Antibiotic Enhancer Action of New Morpholine-Containing 5-Arylideneimidazolones in the Fight against MDR Bacteria” (International Journal of Molecular Sciences, 2021).
Where two headings read alike, the source gives them in different places.

Legend:
[1] = tested on: S. aureus R46-CC22; experiment: MIC reduction assay (antibiotic adjuvant), S. aureus R46-CC22; format: cell-based, Staphylococcus aureus
From the text: (§1) The adjuvant properties of compounds 14–16 in S. aureus clinical isolates were next tested in combination with oxacillin and the penicillinase-susceptible β-lactam antibiotic, ampicillin. The second β-lactam antibiotic was chosen based on its vulnerability to enzymatic hydrolysis, another important resistance mechanism in S. aureus against penicillin. Therefore, the results of the MIC reduction assay obtained on the activity of arylideneimidazolones combined with oxacillin and ampicillin, respectively, might provide further insights into the possible mechanism of action of the compounds. Complete results are presented in Supplementary (Tables S4 and S5), while condensed in Figure 6, in the case of desired activity noted. […] One possible explanation for the lack of adjuvant activity of compounds in some of the strains selected for this study might be that these strains express PBP2a only when induced by the antibiotic, while others, for which potentiating activity of compounds was observed, produce this protein in high levels straight away.
(§2) Determination of MIC values, i.e., intrinsic antibacterial activity, of products and antibiotics (oxacillin, ampicillin, vancomycin, ciprofloxacin, and erythromycin) in the presence and absence of compounds tested was conducted by the use of a standard 2-fold microdilution method in cation-adjusted Mueller Hinton broth following the Clinical and Laboratory Standards Institute (CLSI) guidelines. The MIC values were detected using an Infinite M200 pro Tecan microplate reader (Tecan® France, SA-Lyon, France). MIC determinations were conducted in 96-well microtiter plates and repeated 3–4 times.
(§3) Initially, MICs of a series of imidazolone derivatives were assessed against susceptible (reference) and MDR strains of staphylococci. Next, MIC values of the aforementioned antibiotics were determined in the absence and presence of imidazolone derivatives to assess the chemosensitizing effect of these compounds. […] 5-arylideneimidazolones and 5-arylidenethiazolones, which precipitated after addition to bacterial suspension in MH II medium, were tested at the highest concentrations at which precipitation was not observed. […] Antibacterial activity of compounds and antibiotics ampicillin, vancomycin, ciprofloxacin, and erythromycin was recorded as the lowest concentration of molecules able to inhibit bacterial growth after 18 h incubation at 37 °C. The incubation of bacterial strains exposed to oxacillin paired with compounds tested was conducted at 35 °C and extended to 24 h due to frequent occurrence of heterogeneity among MRSA strains. The results are presented as activity gain (A) parameter which was calculated as ratio of MIC of a certain antibiotic (MICAnt) to its MICAnt+Comp, observed in combination with a tested compound (7, 12–16, 19, or 20; Equation (1)). (1) A=(MICAnt/MICAnt+Comp)

[2] = tested on: S. aureus ATCC 25923; experiment: MIC determination (microdilution), S. aureus ATCC 25923; format: cell-based, Staphylococcus aureus; settings: Staphylococcus aureus
Method: as §2, §3

[3] = tested on: S. aureus R46-CC22; experiment: MIC of compounds, S. aureus R46-CC22; format: cell-based; settings: Staphylococcus aureus; R46-CC22 (MRSA)
Method: (§4) Compounds 14–16 were tested further for their adjuvant-like effect with a set of ten additional S. aureus isolates. Firstly, MIC values of the molecules were evaluated in two clinical MSSA isolates (MM-O058, MM-N072), seven MRSA (USA300 LAC, 5328, LG-N017, MM-O021, R45-CC45, R46-CC22, COL) and one VISA strain (Mu50). Detailed results are presented in the Supplementary section (Table S3).
as §2
as §3, with “The incubation of bacterial strains exposed to oxacillin paired with compounds tested was conducted at 35 °C and extended to 24 h due to frequent occurrence of heterogeneity among MRSA strains.” left out, “(1) A=(MICAnt/MICAnt+Comp)” left out

[4] = tested on: MRSA 19449; experiment: MIC determination (microdilution), MRSA 19449; format: cell-based, Staphylococcus aureus; settings: Staphylococcus aureus, MRSA, no precipitation
Method: as §2, §3

[5] = tested on: K. aerogenes CM-64; experiment: MIC reduction assay (antibiotic adjuvant), K. aerogenes CM-64; format: cell-based, Klebsiella aerogenes; settings: doxycycline, chloramphenicol, norfloxacin, erythromycin;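 note: compound at no more than one quarter of its own MIC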
From the text: (§5) A subset of compounds, namely 7, 12–16, 19, 20, was also examined for the potential to increase the effectiveness of the antibiotics chloramphenicol, erythromycin, doxycycline, and the fluoroquinolone antibiotic norfloxacin, which all are substrates for AcrAB-TolC in K. aerogenes. In addition to strain Ea-289, the adjuvant-like effect of the compounds was investigated in strain CM-64, which also overexpresses the AcrAB-TolC efflux pump, although it has no changes in porin content, and in the Ea-289 derivatives, i.e., Ea-294 and Ea-308, which are devoid of AcrAB (Table S17, Supplementary).
as §3
(§6) MIC values of 5-arylideneimidazolone derivatives were determined following CLSI recommendations as in the methods described for S. aureus (Section 3.3.1).

[6] = tested on: S. aureus R45-CC45; experiment: MIC reduction assay (antibiotic adjuvant), S. aureus R45-CC45; format: cell-based, Staphylococcus aureus; settings: ampicillin; for A (activity gain): range over repetitions
From the text: as §1, §2
as §3, with “The incubation of bacterial strains exposed to oxacillin paired with compounds tested was conducted at 35 °C and extended to 24 h due to frequent occurrence of heterogeneity among MRSA strains.” left out, “(1) A=(MICAnt/MICAnt+Comp)” left out

[7] = tested on: S. aureus USA300 LAC; experiment: MIC reduction assay (antibiotic adjuvant), S. aureus USA300 LAC; format: cell-based, Staphylococcus aureus; design: key: A = MIC of antibiotic alone / MIC with compound
From the text: as §1, §2, §3

[8] = tested on: S. aureus MM-O021; experiment: MIC reduction assay (antibiotic adjuvant), S. aureus MM-O021; format: cell-based, Staphylococcus aureus
From the text: as §1, §2, §3

[9] = tested on: S. aureus 5328; experiment: MIC reduction assay (antibiotic adjuvant), S. aureus 5328; format: cell-based, Staphylococcus aureus
From the text: as §1, §2, §3

[10] = tested on: S. aureus USA300 LAC; experiment: MIC of compounds, S. aureus USA300 LAC; format: cell-based; settings: Staphylococcus aureus
Method: as §4, §2
as §3, with “The incubation of bacterial strains exposed to oxacillin paired with compounds tested was conducted at 35 °C and extended to 24 h due to frequent occurrence of heterogeneity among MRSA strains.” left out, “(1) A=(MICAnt/MICAnt+Comp)” left out

[11] = tested on: S. aureus COL; experiment: MIC of compounds, S. aureus COL; format: cell-based; settings: Staphylococcus aureus; COL (MRSA)
Method: as §4, §2
as §3, with “The incubation of bacterial strains exposed to oxacillin paired with compounds tested was conducted at 35 °C and extended to 24 h due to frequent occurrence of heterogeneity among MRSA strains.” left out, “(1) A=(MICAnt/MICAnt+Comp)” left out

[12] = tested on: S. aureus R45-CC45; experiment: MIC of compounds, S. aureus R45-CC45; format: cell-based; settings: Staphylococcus aureus, read-out: MIC value of compounds
Method: as §4, §2
as §3, with “The incubation of bacterial strains exposed to oxacillin paired with compounds tested was conducted at 35 °C and extended to 24 h due to frequent occurrence of heterogeneity among MRSA strains.” left out, “(1) A=(MICAnt/MICAnt+Comp)” left out

[13] = tested on: K. aerogenes CM-64 (overexpression of AcrAB-TolC); experiment: MIC of compounds, K. aerogenes CM-64; format: cell-based; settings: Klebsiella aerogenes, read-out: Minimal Inhibitory Concentration (MIC)
From the text: as §5, §2, §6

[14] = tested on: S. aureus 5328; experiment: MIC of compounds, S. aureus 5328; format: cell-based; settings: Staphylococcus aureus; 5328 (MRSA)
Method: as §4, §2
as §3, with “The incubation of bacterial strains exposed to oxacillin paired with compounds tested was conducted at 35 °C and extended to 24 h due to frequent occurrence of heterogeneity among MRSA strains.” left out, “(1) A=(MICAnt/MICAnt+Comp)” left out

[15] = tested on: K. aerogenes Ea-294, Ea-308; experiment: MIC reduction assay (antibiotic adjuvant), K. aerogenes Ea-294, Ea-308; format: cell-based, Klebsiella aerogenes; settings: doxycycline, chloramphenicol, norfloxacin, erythromycin;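 note: compound at no more than one quarter of its own MIC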
From the text: as §5, §3, §6

[16] = tested on: S. aureus LG-N017; experiment: MIC of compounds, S. aureus LG-N017; format: cell-based; settings: Staphylococcus aureus; LG-N017 (MRSA)
Method: as §4, §2
as §3, with “The incubation of bacterial strains exposed to oxacillin paired with compounds tested was conducted at 35 °C and extended to 24 h due to frequent occurrence of heterogeneity among MRSA strains.” left out, “(1) A=(MICAnt/MICAnt+Comp)” left out

[17] = tested on: K. aerogenes Ea-294, Ea-308 (devoid of AcrAB); experiment: MIC of compounds, K. aerogenes Ea-294, Ea-308; format: cell-based; settings: Klebsiella aerogenes, read-out: Minimal Inhibitory Concentration (MIC)
From the text: as §5, §2, §6

[18] = tested on: S. aureus COL; experiment: MIC reduction assay (antibiotic adjuvant), S. aureus COL; format: cell-based, Staphylococcus aureus; settings: ampicillin
From the text: as §1, with “away. […]” for “away.”
Initially, MICs of a series of imidazolone derivatives were assessed against susceptible (reference) and MDR strains of staphylococci. Next, MIC values of the aforementioned antibiotics were determined in the absence and presence of imidazolone derivatives to assess the chemosensitizing effect of these compounds. […] Antibacterial activity of compounds and antibiotics ampicillin, vancomycin, ciprofloxacin, and erythromycin was recorded as the lowest concentration of molecules able to inhibit bacterial growth after 18 h incubation at 37 °C. […] The results are presented as activity gain (A) parameter which was calculated as ratio of MIC of a certain antibiotic (MICAnt) to its MICAnt+Comp, observed in combination with a tested compound (7, 12–16, 19, or 20; Equation (1)). […]

[19] = tested on: K. aerogenes Ea-294, Ea-308 (devoid of AcrAB); experiment: MIC of compounds, K. aerogenes Ea-294, Ea-308; format: cell-based, Klebsiella aerogenes; settings: ratio of compound MICs
[20] = ATCC25923, unstarred values of column MIC value/no precipitation, read-out: MIC value
[21] = ampicillin, range over repetitions
[22] = USA300 LAC (MRSA), read-out: MIC value of compounds

Compound	A (activity gain) ([1]; ampicillin)	A (activity gain) ([1]; ciprofloxacin)	MIC [2, 20]	MIC [3]	MIC [4]	A (activity gain) [5]	A (activity gain) [6]	A (activity gain) ([7]; ampicillin)	A (activity gain) ([7]; ciprofloxacin)	A (activity gain) ([7]; erythromycin)	A (activity gain) [8, 21]	A (activity gain) ([8]; erythromycin)	A (activity gain) ([9]; ampicillin)	A (activity gain) ([9]; erythromycin, S. aureus 53284)	MIC [11]	MIC [13]	MIC [14]	A (activity gain) [15]	MIC [16]	MIC [17]	also measured
NC1=N/C(=C\c2ccc(-c3ccccc3)cc2)C(=O)N1CCN1CCOCC1 [Compound 14]	2	1	31.2 to 250 µM	≥ 500 µM	31.2 to 250 µM	1	2-4	1	1	1	1	1	2	1	≥ 500 µM	> 2000 µM	≥ 500 µM	1	≥ 500 µM	2000 µM	MIC [10, 22]: ≥ 500 µM; MIC ([12]; R45-CC45 (MRSA)): ≥ 500 µM; A (activity gain) [18]: 1
NC1=N/C(=C\c2ccc(-c3ccccc3)cc2)C(=O)N1CCCN1CCOCC1 [Compound 15]	2	1	31.2 to 250 µM	250 µM	31.2 to 250 µM	1	4-8	2	1	1	8-16	1	2	1	250 µM	> 2000 µM	250 µM	1	250 µM	125 µM	more effective in strains Ea-294 and Ea-298 when compared to the parental strain Ea-289 [19]: ≥ 4 fold; MIC ([2]; ATCC25923, read-out: MIC value): 125 µM; A (AMP), gain of activity, arithmetic mean ([6]; arithmetic mean of 3-4 repetitions): 6; A (AMP), gain of activity, arithmetic mean ([8]; ampicillin, arithmetic mean of 3-4 repetitions): 10.7; MIC ([10]; MRSA / USA300, read-out: MIC value of compounds): 125 µM; MIC ([12]; MRSA): 125 to 250 µM; A (activity gain) [18]: 1
NC1=N/C(=C\c2cccc(Oc3ccccc3)c2)C(=O)N1CCCN1CCOCC1 [Compound 16]	1	1	31.2 to 250 µM	250 to 500 µM			1	1	1	1	1	1	1	1	250 µM	> 2000 µM	250 µM		250 µM	500 µM	more effective in strains Ea-294 and Ea-298 when compared to the parental strain Ea-289 [19]: ≥ 4 fold; MIC [10, 22]: 250 µM; MIC ([12]; R45-CC45 (MRSA)): 250 µM; A (activity gain) [18]: 1
NC1=N/C(=C\c2ccc3c(c2)Cc2ccccc2-3)C(=O)N1CCCN1CCOCC1 [Compound 19]			31.2 to 250 µM		31.2 to 250 µM	1										> 2000 µM		1		250 µM	more effective in strains Ea-294 and Ea-298 when compared to the parental strain Ea-289 [19]: ≥ 4 fold
